The values that follow come from paper doi:10.1101/2024.08.19.608619, “Discovery of potent SARS-CoV-2 nsp3 macrodomain inhibitors uncovers lack of translation to cellular antiviral response” (bioRxiv, 2024).

One series relates to kinase panel. The series is described as follows: Eurofins kinase panel. In kind it is biochemical. Particulars: test compound 10 uM.
Series [1] is described as follows: iPSC pneumocytes cytotoxicity. The class given is cell-based. The note with it: protocol iPSC pneumocytes cytotoxicity. The source says:
(§1) Supplement media-1.zip/Cytotoxicity.csv, table | column: cc10; cc50; perc_min_measured; perc_max_measured

The next series addresses Nsp3-mac1 (Severe acute respiratory syndrome coronavirus 2, UniProt P0DTD1). The series is described as follows: ADPr hydrolase assay (LC-MS/MS). In kind it is biochemical, SARS-CoV-2. The note with it: Nsp3-mac1 200 nM, αNAD+ 8 μM. How it is done: ADPr hydrolase activity assay was conducted in 96-well plate with pre-dispensed compounds in 8-point dose response starting from 4 μM (control wells were backfilled with DMSO). […] Nsp3-mac1 200 nM in final assay concentration was added to all wells besides “NAD+ alone” well. The plate was centrifuged at 1,500 rpm for 1 min, and then Incubated at room temperature for 15 min. After incubation, αNAD+ in final concentration of 8 μM were added to each well, and the plate was centrifuged again for 1 min. Then, the plate was incubated under shaking at room temperature for 2.45 h, followed by freezing at −80°C until LC-MS/MS analysis.
A 30-μl sample aliquot was mixed with 90 μl of methanol and 1μl of 50 μM 15N5-AMP (an internal standard). The mix was shaken for 10 min, then centrifuged (~21,000 g) for 5 min to precipitate the protein. […]
Mass detection was carried out using electrospray ionization in the positive mode. […] Analytes were detected using multiple reaction monitoring (MRM, m/z) with the following precursor and fragment masses at selected collision energy (eV, indicated in brackets): 560 > 136 (34) and 560 > 348 ([16]) for ADPR, 664 > 524 ([15]) and 664 > 541.7 ([15]) for αNAD+, 353.1 > 97 ([28]) and 353.1 > 141 ([20]) for […] (IS) m/z. […]

The nature of series [2]: Vero E6/TMPRSS2 cytotoxicity with P-gp inhibitor. In kind it is cell-based. Particulars: African green monkey, Vero E6/TMPRSS2 cells, with P-gp inhibitor (name and concentration not stated).
Source text: as §1

A further series addresses hERG (Homo sapiens, UniProt Q12809). Nature of the series: In vitro CEREP profiling, Potassium Channel hERG (human)- [3H] Dofetilide. The class given is binding. Also noted: purchased Eurofins Cerep (SafetyScreen44), recognised from the panel format. The note with it: hERG potassium channel binding assay, probe [3H] Dofetilide, test compound concentration 10 uM, read-out: perc_inhibition, % inhibition of the binding of a ligand specific for each target. An excerpt:
Supplement media-1.zip/Safety_Panel_Profile.csv, table | column: perc_inhibition

For the next series, the target named is CYP1A2 (Homo sapiens, UniProt P05177). Nature of the series: CYP inhibition. The class given is in vitro ADME. The note with it: human; isoform 1A2; In vitro CYP inhibition pooled. The source says:
(§2) Supplement media-1.zip/CYP_Inhibition.csv, table | column: ic50; potency

For the next series, the target named is CYP2C9 (Homo sapiens, UniProt P11712). The series is described as follows: CYP inhibition. The note with it: human; isoform 2C9; In vitro CYP inhibition pooled. In kind it is in vitro ADME.
Source text: as §2

The next series addresses CYP2C19 (Homo sapiens, UniProt P33261). The series is described as follows: CYP inhibition. In kind it is in vitro ADME. Particulars: human; isoform 2C19; In vitro CYP inhibition pooled.
Source text: as §2

For the next series, the target named is CYP3A4 (Homo sapiens, UniProt P08684). Nature of the series: CYP inhibition. The note with it: human; isoform 3A4; In vitro CYP inhibition pooled. The class given is in vitro ADME.
Source text: as §2

Another series deals with CYP2D6 (Homo sapiens, UniProt P10635). Nature of the series: CYP inhibition. The class given is in vitro ADME. Particulars: human; isoform 2D6; In vitro CYP inhibition pooled.
Source text: as §2

Sequence of hERG (Q12809 whole entry): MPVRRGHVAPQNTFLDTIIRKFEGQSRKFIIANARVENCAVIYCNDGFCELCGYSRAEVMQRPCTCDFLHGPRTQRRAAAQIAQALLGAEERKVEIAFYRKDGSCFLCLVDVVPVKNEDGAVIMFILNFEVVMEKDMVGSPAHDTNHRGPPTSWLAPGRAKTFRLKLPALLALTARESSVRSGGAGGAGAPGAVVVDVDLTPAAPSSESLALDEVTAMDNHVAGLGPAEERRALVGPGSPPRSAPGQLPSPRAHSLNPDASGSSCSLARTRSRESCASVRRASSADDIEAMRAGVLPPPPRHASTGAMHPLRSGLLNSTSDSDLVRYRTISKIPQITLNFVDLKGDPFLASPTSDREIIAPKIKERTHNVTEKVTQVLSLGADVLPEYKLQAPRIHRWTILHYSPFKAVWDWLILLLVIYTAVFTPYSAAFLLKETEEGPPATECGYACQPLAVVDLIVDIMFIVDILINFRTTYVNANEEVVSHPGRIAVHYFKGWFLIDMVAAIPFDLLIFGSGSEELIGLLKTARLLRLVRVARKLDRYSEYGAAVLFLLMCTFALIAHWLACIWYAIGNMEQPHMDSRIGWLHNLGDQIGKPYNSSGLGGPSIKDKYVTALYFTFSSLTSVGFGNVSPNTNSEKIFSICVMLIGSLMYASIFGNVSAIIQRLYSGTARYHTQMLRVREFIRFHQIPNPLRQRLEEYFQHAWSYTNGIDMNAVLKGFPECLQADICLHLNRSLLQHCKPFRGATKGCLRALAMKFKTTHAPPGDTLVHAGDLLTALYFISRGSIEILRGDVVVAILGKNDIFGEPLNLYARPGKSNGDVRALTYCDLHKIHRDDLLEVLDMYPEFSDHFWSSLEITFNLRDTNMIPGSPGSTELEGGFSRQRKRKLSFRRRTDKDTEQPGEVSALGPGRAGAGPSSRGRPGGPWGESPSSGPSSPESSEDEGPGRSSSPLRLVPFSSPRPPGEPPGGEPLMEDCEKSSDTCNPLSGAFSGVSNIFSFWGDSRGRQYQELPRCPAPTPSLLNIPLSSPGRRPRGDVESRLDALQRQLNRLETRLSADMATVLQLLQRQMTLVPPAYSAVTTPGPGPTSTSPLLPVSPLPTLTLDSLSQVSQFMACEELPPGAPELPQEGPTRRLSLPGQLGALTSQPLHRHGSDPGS
Sequence of CYP1A2 (P05177 2-516): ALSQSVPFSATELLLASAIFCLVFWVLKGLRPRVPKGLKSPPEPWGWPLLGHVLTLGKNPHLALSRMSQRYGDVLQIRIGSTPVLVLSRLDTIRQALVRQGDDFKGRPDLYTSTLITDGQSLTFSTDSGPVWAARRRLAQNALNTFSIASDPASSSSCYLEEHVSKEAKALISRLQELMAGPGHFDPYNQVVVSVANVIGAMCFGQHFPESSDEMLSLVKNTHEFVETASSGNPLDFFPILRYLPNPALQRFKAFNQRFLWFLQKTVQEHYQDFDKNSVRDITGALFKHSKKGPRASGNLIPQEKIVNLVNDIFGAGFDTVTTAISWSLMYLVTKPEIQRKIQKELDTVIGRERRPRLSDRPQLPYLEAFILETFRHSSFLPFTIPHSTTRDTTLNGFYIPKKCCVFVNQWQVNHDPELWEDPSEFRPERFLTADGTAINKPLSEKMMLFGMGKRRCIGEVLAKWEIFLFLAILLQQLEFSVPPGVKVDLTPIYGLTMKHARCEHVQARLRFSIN
Sequence of CYP2C19 (P33261 whole entry, canonical isoform): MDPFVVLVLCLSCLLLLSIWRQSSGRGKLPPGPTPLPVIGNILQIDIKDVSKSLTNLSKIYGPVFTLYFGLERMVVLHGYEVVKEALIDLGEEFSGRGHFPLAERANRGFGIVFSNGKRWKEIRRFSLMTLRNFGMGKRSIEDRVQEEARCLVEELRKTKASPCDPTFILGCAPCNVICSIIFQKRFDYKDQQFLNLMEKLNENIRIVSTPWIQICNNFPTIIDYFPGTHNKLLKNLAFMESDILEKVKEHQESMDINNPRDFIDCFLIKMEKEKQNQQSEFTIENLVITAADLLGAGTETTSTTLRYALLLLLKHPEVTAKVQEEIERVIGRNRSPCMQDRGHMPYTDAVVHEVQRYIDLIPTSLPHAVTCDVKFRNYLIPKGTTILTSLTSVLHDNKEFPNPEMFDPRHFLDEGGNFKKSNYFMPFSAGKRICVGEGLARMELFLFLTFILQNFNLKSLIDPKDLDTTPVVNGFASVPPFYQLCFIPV
Sequence of CYP2D6 (P10635 whole entry, canonical isoform): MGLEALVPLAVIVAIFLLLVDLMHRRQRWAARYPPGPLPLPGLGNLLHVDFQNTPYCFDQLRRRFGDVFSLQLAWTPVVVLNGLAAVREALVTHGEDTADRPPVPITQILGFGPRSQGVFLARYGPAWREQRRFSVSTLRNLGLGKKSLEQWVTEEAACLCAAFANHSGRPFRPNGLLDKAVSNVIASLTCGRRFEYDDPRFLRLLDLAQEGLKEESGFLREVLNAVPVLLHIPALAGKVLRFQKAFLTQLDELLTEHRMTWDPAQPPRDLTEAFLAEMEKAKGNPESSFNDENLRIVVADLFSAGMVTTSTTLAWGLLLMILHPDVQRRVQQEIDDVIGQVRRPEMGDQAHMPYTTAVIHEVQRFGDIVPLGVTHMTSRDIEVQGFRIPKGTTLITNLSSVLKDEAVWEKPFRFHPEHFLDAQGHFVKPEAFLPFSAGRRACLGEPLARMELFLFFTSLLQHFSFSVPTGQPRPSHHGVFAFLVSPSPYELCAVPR
Sequence of CYP2C9 (P11712 whole entry, canonical isoform): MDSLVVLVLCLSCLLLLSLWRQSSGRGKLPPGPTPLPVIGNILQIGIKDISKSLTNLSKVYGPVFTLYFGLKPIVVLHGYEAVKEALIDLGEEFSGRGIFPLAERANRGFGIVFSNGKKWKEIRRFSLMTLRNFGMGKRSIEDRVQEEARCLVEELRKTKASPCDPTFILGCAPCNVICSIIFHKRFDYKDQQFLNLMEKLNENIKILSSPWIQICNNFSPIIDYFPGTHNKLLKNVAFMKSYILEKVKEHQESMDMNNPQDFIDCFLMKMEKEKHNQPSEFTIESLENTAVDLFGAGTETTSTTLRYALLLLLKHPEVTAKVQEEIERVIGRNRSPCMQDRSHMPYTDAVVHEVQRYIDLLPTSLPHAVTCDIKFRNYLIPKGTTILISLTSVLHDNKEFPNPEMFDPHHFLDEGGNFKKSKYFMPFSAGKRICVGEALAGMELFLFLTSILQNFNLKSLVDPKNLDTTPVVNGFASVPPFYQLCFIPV
Sequence of CYP3A4 (P08684 2-503): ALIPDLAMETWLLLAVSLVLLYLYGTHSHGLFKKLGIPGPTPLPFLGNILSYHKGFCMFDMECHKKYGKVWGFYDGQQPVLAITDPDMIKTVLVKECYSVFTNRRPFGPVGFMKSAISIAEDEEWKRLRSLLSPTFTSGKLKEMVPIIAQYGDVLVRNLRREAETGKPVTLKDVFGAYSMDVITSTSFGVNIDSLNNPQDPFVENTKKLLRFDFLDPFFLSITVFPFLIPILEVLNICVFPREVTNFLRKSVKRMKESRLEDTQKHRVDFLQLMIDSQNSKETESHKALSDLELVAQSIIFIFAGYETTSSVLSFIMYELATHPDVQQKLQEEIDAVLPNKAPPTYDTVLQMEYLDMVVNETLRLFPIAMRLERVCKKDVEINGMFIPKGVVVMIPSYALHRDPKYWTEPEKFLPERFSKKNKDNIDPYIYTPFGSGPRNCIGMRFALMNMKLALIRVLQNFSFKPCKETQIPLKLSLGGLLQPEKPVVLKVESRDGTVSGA

Turning to `CC(C)C(Nc1ncnc2[nH]ccc12)c1ccc2c(c1)S(=O)(=O)CCC2` (centres unmarked) [ASAP-0008327], the perc_activity was 93% in the series with kinase panel (kinase ALK(h), ATP 200 uM); 94% with kinase panel (kinase AMPKα1(h), ATP 45 uM); 108% with kinase panel (kinase ASK1(h), ATP 200 uM); 93% in the series on kinase panel (kinase Abl(h), ATP 45 uM); 57% in the series with kinase panel (kinase Aurora-A(h), ATP 15 uM). Also, the CC50 (as a rule, the concentration giving 50% cytotoxicity) in series [1] is above 50 µM.
Turning to `CC(C)C(Nc1ncnc2[nH]c(C(=O)NC3CCN(C)C3)cc12)c1ccc2c(c1)S(=O)(=O)CCC2` (centres unmarked) [ASAP-0011198], the IC50 – broadly, the concentration that gives 50% inhibition – on Nsp3-mac1 was 0.42 µM; at CYP1A2, above 50 µM; on CYP2C9, above 50 µM; at CYP2C19, above 50 µM; against CYP3A4, above 50 µM; on CYP2D6, above 50 µM. This compound had a CC50 in series [2] above 5 µM. Also, the inhibition (as a rule, the percentage by which the read-out fell short of the control) at 10 µM at hERG came to 7%.
On Nsp3-mac1, `Cc1nn(C)cc1-c1cc2c(NC(c3ccc4c(c3)S(=O)(=O)CCC4)C(C)C)ncnc2[nH]1` (centres unmarked) [ASAP-0011446] had an IC50 of 0.28 µM. The compound further yielded a CC50 in series [2] above 5 µM. The inhibition at 10 µM at hERG came to 3%.
